Assay results published in patent US20090215884A1, “METHOD FOR WOUND HEALING” (priority 2005, published 2009).

Columns and labels:
[1] = Storage stability of PEP005 preparations; assay type: physicochemical; details: stored at 4° C.
Experimental: PEP005 was supplied by Peplin Limited, Brisbane, Australia, in 20 mg batches and stored at 4° C. When required, the PEP005 was solubilized in dimethyl sulphoxide (DMSO, >99.9%, Sigma Chemical Co., Dorset, U.K.), at a concentration of 10 mg/ml.
PEP005 was supplied by Peplin Limited, Brisbane, Australia as 0.01% (100 μg/ml), 0.028% (280 μg/ml) and 0.05% (500 μg/ml) preparations in a DMSO/isopropanol-based gel. PEP005-free, DMSO/isopropanol-based carrier gel was also supplied to serve as a vehicle control.

[2] = tested on: keratinocytes; experiment: Cytokine production by PEP005-treated human keratinocytes; assay type: cell-based; details: 6 h, supernatant
Experimental: Cytokine production by PEP005-treated human cells Confluent cultures of Me10538 cells, keratinocytes, fibroblasts and neutrophils were incubated for 6 h in the absence or presence of PEP005 (1-100 ng/ml). The supernatants were harvested and analyzed for the presence of the following cytokines; TNF-α, IL-6 and IL-8 using a multiplex detection kit (Biosource International, Nivelles, Belgium). Units of detected proteins are pg/ml.

[3] = tested on: PBMC; experiment: Cytokine production of stimulated PBMC (Bead Suspension Assay); assay type: cell-based, human; details: 24 h
Experimental: PEP005 was provided as a dry powder. A stock solution of 23.55 mM was prepared in DMSO and aliquots were stored at −20° C. An aliquot of the stock solution was thawed on the day of use and stored at room temperature prior to and during dosing. Intermediate dilution steps were carried out using DMEM cell culture medium.
For the isolation of PBMC freshly drawn human blood treated with Li-Heparin as an anti-coagulant was used. Cells were diluted with three volumes of CliniMACS PBS/EDTA Buffer (Miltenyi, Bergisch Gladbach), carefully layered over FicollPaque (Amersham Biosciences, Freiburg) in a conical tube and centrifuged at 400×g for 40 minutes at 20° C. in a swinging-bucket rotor without brake. The upper layer was aspirated, leaving the mononuclear cell layer undisturbed at the interphase. The interphase cells (lymphocytes, monocytes and thrombocytes) were carefully transferred into a new conical tube. The conical tube was filled with CliniMACS PBS/EDTA Buffer and centrifuged at 300×g for 10 minutes at 20° C. The supernatant was completely removed. For removal of platelets the cell pellet was resuspended in 50 ml of Buffer and centrifuged at 200×g for 10 minutes at 20° C. The supernatant was completely removed and the last washing step was repeated. Cells were resuspended in DMEMMedium (Invitrogen, Karlsruhe) and counted in a Neubauer-hemocytometer.
For the stimulation of PBMC 250.000 cells per well were seeded in a 96-well plate. PBMC of three different healthy donors were stimulated with PEP005 in three different concentrations (1, 10 and 100 nM) or LPS 1 μg/ml (Linaris, Wertheim-Bettingen), PMA 10 ng/ml (Sigma, Deisenhofen) and Ionomycin 1 μg/ml (Sigma, Deisenhofen), respectively. Cells were incubated at 37° C. and 5% CO^2 in a humidified atmosphere for 24 h.
In a typical Bead Suspension Assay a cytokine is captured from a supernatant with bead bound antibodies. The cytokine is quantified with a secondary antibody to complete a sandwich immunoassay. Cytokine concentrations are calculated with the help of a standard curve for each cytokine.
The cytokines IL-1β, IL-2, IL-6, IL-8 and TNF-α were quantitatively measured in the supernatant of the PBMC with a BioRad BioPlex System according to the manufacturer's intructions. All samples were measured in duplicates. All units of detected proteins are pg/ml.
To investigate the immunostimulating effects of PEP005, PBMCs from three different healthy donors were exposed for 24 h to PEP005 at concentrations of 1, 10 and 100 nM. The secretion of IL-1β, IL-2, IL-6, IL-8 and TNF-α into the supernatant was quantitatively measured by flow cytometry with the Bead Suspension Assays. The results are depicted in Tables 1.4-1.8.

[4] = PBMC donor three, PEP005 100 nM
[5] = PBMCs from the three donors, 1 nM PEP005

With C/C=C(/C)C(=O)O[C@H]1C(C)=C[C@]23C(=O)[C@@H](C=C(CO)[C@@H](O)[C@]12O)[C@H]1[C@@H](C[C@H]3C)C1(C)C [PEP005, ingenol-3-angelate] the “stability of PEP005 gels” value ([1]; 0.01%, 0.028% and 0.05% preparations in DMSO/isopropanol-based gel) was “stable for several months”, the “stability of PEP005/DMSO stock solution” value ([1]; 10 mg/ml in DMSO) was “stable for several months” and the IL-8 ([2]; PEP005 1 ng/ml) was 3910 ± 148 pg/mL. The TNFα ([2]; PEP005 1 ng/ml) was 510 ± 26 pg/mL, the IL-8 ([2]; PEP005 5 ng/ml) was 4775 ± 178 pg/mL and the TNFα ([2]; PEP005 5 ng/ml) was 847 ± 37 pg/mL. It also gave an IL-8 ([2]; PEP005 10 ng/ml) of 3895 ± 198 pg/mL, a TNFα ([2]; PEP005 10 ng/ml) of 498 ± 29 pg/mL and an IL-8 ([2]; PEP005 100 ng/ml) of 2950 ± 108 pg/mL. For the same compound, the TNFα ([2]; PEP005 100 ng/ml) was 335 ± 21 pg/mL, the “elevated IL-6 levels in PBMC supernatant (parenthetical, condition not stated)” value [3] was ~9 fold and the IL-1β production ([3]; PBMC donor one, PEP005 1 nM) was 94.49 pg/mL. For the same compound, the IL-2 production ([3]; PBMC donor one, PEP005 1 nM) was 82.68 pg/mL, the IL-6 production ([3]; PBMC donor one, PEP005 1 nM) was 320.61 pg/mL and the IL-8 production ([3]; PBMC donor one, PEP005 1 nM) was 13652.6 pg/mL. For the same compound, the TNF-α production ([3]; PBMC donor one, PEP005 1 nM) was 148.42 pg/mL, the IL-1β production ([3]; PBMC donor one, PEP005 10 nM) was 61.62 pg/mL and the IL-2 production ([3]; PBMC donor one, PEP005 10 nM) was 60.3 pg/mL. For the same compound, the IL-6 production ([3]; PBMC donor one, PEP005 10 nM) was 216.09 pg/mL, the IL-8 production ([3]; PBMC donor one, PEP005 10 nM) was 9418.94 pg/mL and the TNF-α production ([3]; PBMC donor one, PEP005 10 nM) was 76.14 pg/mL. It also gave an IL-1β production ([3]; PBMC donor one, PEP005 100 nM) of 0 pg/mL, an IL-2 production ([3]; PBMC donor one, PEP005 100 nM) of 10.56 pg/mL and an IL-6 production ([3]; PBMC donor one, PEP005 100 nM) of 0 pg/mL. It also gave an IL-8 production ([3]; PBMC donor one, PEP005 100 nM) of 52.77 pg/mL, a TNF-α production ([3]; PBMC donor one, PEP005 100 nM) of 19.44 pg/mL and an IL-1β production ([3]; PBMC donor three, PEP005 1 nM) of 314.73 pg/mL. For the same compound, the IL-2 production ([3]; PBMC donor three, PEP005 1 nM) was 54.61 pg/mL, the IL-6 production ([3]; PBMC donor three, PEP005 1 nM) was 131.46 pg/mL and the IL-8 production ([3]; PBMC donor three, PEP005 1 nM) was 28029.68 pg/mL. For the same compound, the TNF-α production ([3]; PBMC donor three, PEP005 1 nM) was 130.99 pg/mL, the IL-1β production ([3]; PBMC donor three, PEP005 10 nM) was 173.33 pg/mL and the IL-2 production ([3]; PBMC donor three, PEP005 10 nM) was 31.53 pg/mL. For the same compound, the IL-6 production ([3]; PBMC donor three, PEP005 10 nM) was 61.66 pg/mL, the IL-8 production ([3]; PBMC donor three, PEP005 10 nM) was 11438.34 pg/mL and the TNF-α production ([3]; PBMC donor three, PEP005 10 nM) was 73.48 pg/mL. It also gave an IL-1β production [3, 4] of 10.92 pg/mL, an IL-2 production [3, 4] of 2 pg/mL and an IL-6 production [3, 4] of 0 pg/mL. The IL-8 production [3, 4] was 205.36 pg/mL, the TNF-α production [3, 4] was 12.93 pg/mL and the IL-1β production ([3]; PBMC donor two, PEP005 1 nM) was 125.17 pg/mL. For the same compound, the IL-2 production ([3]; PBMC donor two, PEP005 1 nM) was 17.86 pg/mL, the IL-6 production ([3]; PBMC donor two, PEP005 1 nM) was 69.48 pg/mL and the IL-8 production ([3]; PBMC donor two, PEP005 1 nM) was 12148.42 pg/mL. For the same compound, the TNF-α production ([3]; PBMC donor two, PEP005 1 nM) was 90.72 pg/mL, the IL-1β production ([3]; PBMC donor two, PEP005 10 nM) was 98.04 pg/mL and the IL-2 production ([3]; PBMC donor two, PEP005 10 nM) was 19.47 pg/mL. The IL-6 production ([3]; PBMC donor two, PEP005 10 nM) was 73.97 pg/mL, the IL-8 production ([3]; PBMC donor two, PEP005 10 nM) was 18220.74 pg/mL and the TNF-α production ([3]; PBMC donor two, PEP005 10 nM) was 71.6 pg/mL. It also gave an IL-1β production ([3]; PBMC donor two, PEP005 100 nM) of 11.76 pg/mL, an IL-2 production ([3]; PBMC donor two, PEP005 100 nM) of 12.84 pg/mL and an IL-6 production ([3]; PBMC donor two, PEP005 100 nM) of 95.43 pg/mL. For the same compound, the IL-8 production ([3]; PBMC donor two, PEP005 100 nM) was 217.52 pg/mL, the TNF-α production ([3]; PBMC donor two, PEP005 100 nM) was 35.75 pg/mL and the “increase of IL-2 levels in the supernatant” value [3, 5] was 20 to 80 fold. For the same compound, the “mean increase of IL-2 levels in the supernatant” value [3, 5] was “approximately 50 fold”, the “increase of IL-6 levels in PBMC supernatants” value ([3]; PEP005 at 1 nM) was 4 to 6 fold and the “increase of IL-8 levels in the supernatant of PBMCs” value ([3]; PEP005 at 1 nM) was 3- to 5 fold. The “TNF-α levels in supernatants of PBMCs” value ([3]; all three donors, PEP005 at 1 nM) was “approximately 120 nM”.
